According to patent US20040034006A1, “Method of inactivating viral particles in a blood product” (priority 2000, published 2004):
Where “and” joins values, the source holds several entries; their conditions need not be identical. Identical values can stand only once.

What was measured:
red blood cells = test: in vivo survival of 51Cr-labeled RBC photodynamically treated and re-infused; conditions: one value per monkey (BB26, CO33)
P. aeruginosa = test: photodynamic inactivation of bacteria with varying amounts of light; assay type: cell-based; conditions: 25 uM; dependent on amount of light (kJ/m^2); drops from 100%; FIG. 5
S. aureus = test: as above; assay type: cell-based; conditions: 25 uM; dependent on amount of light (kJ/m^2); drops from 100%; FIG. 5

In the case of `C[n+]1ccc(-c2c3nc(c(-c4cc[n+](C)cc4)c4ccc([nH]4)c(-c4cc[n+](C)cc4)c4nc(c(-c5ccccc5)c5ccc2[nH]5)C=C4)C=C3)cc1.[Cl-].[Cl-].[Cl-]` [Sylsens, mono-phenyl-tri-(N-methyl-4-pyridyl)-porphyrin chloride], the “recovery (%) of red blood cells 24 h after re-infusion” value (red blood cells; Treated I: re-infused immediately after treatment) is reported as 75% and 102%, the “recovery (%) of red blood cells 24 h after re-infusion” value (red blood cells; Treated II: re-infused after 5 weeks of storage after treatment) is reported as 71% and 72% and the “inactivation of bacteria, percentage remaining” value (P. aeruginosa) is reported as at most 0.001%. For the same compound, the “inactivation of bacteria, percentage remaining” value (S. aureus) was at most 0.001%.
